# Experimental data as given in patent publication US10072125B2, “Thiourea-containing dendrimer and thiourea-containing hyperbranched polymer as well as preparation methods thereof and applications thereof” (priority 2014, dated 2018).
# Marks after values point to notes of the source that are not given here.
# Key:
# Experiment in all cases: Antibacterial performance test, MIC by broth dilution
# Format in all cases: cell-based
# Enterococcus faecalis = conditions: 24 h at 37° C., 5×10^5 CFU/mL, read-out: MIC E. faecalis
# Protocol: (§1) To evaluate the antimicrobial activity of each generation of polythiourea dendrimer as described in Example 3, the MICs (minimal inhibitory concentrations) of these dendrimers against different bacteria strains, including Staphylococcus aureus, Enterococcus faecalis, Escherichia coli, Staphylococcus epidermidis, Enterobacter cloacae and Proteus valgaris were determined.
# (§2) The strains stored at −20° C. were inoculated on MH agar plates and incubated overnight at 37° C. The monoclonal colonies were cultured in 3 mL nutrient broth at 37° C. to reach the logarithmic growth period. Then the bacteria were diluted with the MH broth to 0.5 millet turbidity standard and further diluted to 1:100 with MH broth as a stock. The diluted bacteria should be inoculated within 15 min. The polythiourea dendrimers were diluted with sterile water into 200 mg/mL, filtered and sterilized. Gentamicin and amikacin were used as positive controls for Gram-negative and Gram-positive bacteria, respectively. Dispense 100 μL of M-H broth into all wells of 96-well plate, and then pipette 100 μL of M-G1-PEG, M-G2-PEG, M-G3-PEG, M-G4-PEG, antibiotics and MH broth in the first column in the order of labeling. After mixing well with the gun, transfer 100 μL from each well in the first column to the corresponding well in the second column. Repeat the procedure to column 10 and discard […], from column 10. Then 100 μL of bacteria was added to each well. The final bacterial solution concentration per well was 5×10^5 CFU/mL. On the outer periphery of the 96-well plate, 200 μL of the drug-free suspension was added as a sterile control. At the same time subculture the suspension in the agar plate, for assessing the purity of bacteria. The inoculated 96-well plates were shaken on a micro-shaker for 1 min, mixed thoroughly and placed in a wet box. After incubated for 24 h at 37° C., the minimum drug concentration of the clear well was observed by the naked eye as the MIC of the drug. At the same time, it was examined whether the growth of the control well was good and the sterile control well was clear. The plate culture of the suspension was examined to determine whether it was contaminated and whether the MIC value of the control strain was in the control range. This assay was repeated three times.
# Staphylococcus aureus = conditions: 24 h at 37° C., 5×10^5 CFU/mL, read-out: MIC S. aureus
# Protocol: as §1, §2
# [1] = tested on: Staphylococcus epidermidis; conditions: 24 h at 37° C., 5×10^5 CFU/mL, read-out: MIC S. epidermidis
# Protocol: as §1, §2
# Enterobacter cloacae = conditions: 24 h at 37° C., 5×10^5 CFU/mL
# Protocol: as §1, §2
# Escherichia coli = conditions: 24 h at 37° C., 5×10^5 CFU/mL
# Protocol: as §1, §2
# Proteus valgaris = conditions: 24 h at 37° C., 5×10^5 CFU/mL
# Protocol: as §1, §2
Compound,MIC (Enterococcus faecalis) [µg/mL],MIC (Staphylococcus aureus) [µg/mL],MIC [1] [µg/mL],MIC E. cloacae (Enterobacter cloacae),MIC E. coli (Escherichia coli),MIC P. valgaris (Proteus valgaris)
NCC[C@H](O)C(=O)N[C@@H]1C[C@H](N)[C@@H](O[C@H]2O[C@H](CN)[C@@H](O)[C@H](O)[C@H]2O)[C@H](O)[C@H]1O[C@H]1O[C@H](CO)[C@@H](O)[C@H](N)[C@H]1O [Amikacin],4,2,0.5,–,–,–
Gentamicin,–,–,–,2** μg/mL,1** μg/mL,2** μg/mL
